Measured values taken from paper PMC8016481, “Tachykinin signaling inhibits task-specific behavioral responsiveness in honeybee workers” (eLife, 2021).

Key:
honeybee TRPR = assay: Competitive binding of TRPs to TRPR in Sf21 cells (displacement of TAMRA-TRP2/TAMRA-TRP3); design: species or system Apis mellifera
[1] = system: worker bees (Apis mellifera ligustica); assay: Proboscis extension response (PER) after TRP2 injection; format: in vivo; conditions: for reduction of SRS vs ddH2O, Z: Mann-Whitney U test; for PER ratio: 1 μl of 1 μg/μl into head, 1 hr after injection
Procedure: To investigate the sucrose responsiveness, bees were assayed using an ascending order of sucrose concentrations: 0.1%, 0.3%, 1%, 3%, 10%, and 30% (weight/weight). A small droplet of each solution was touched to the bees’ antennae for 3 s and the extension of the proboscis was monitored during this time. The interval between each sucrose solution trial was 5 min to exclude sensitization or habituation effects. The total number of PER responses after stimulation with the six different sucrose concentrations was combined into an SRS of a bee ([Pankiw et al., 2001]; [Scheiner et al., 2002]; [Scheiner et al., 2003]). The SRSs of the three behavioral phenotypes in the same species were compared using Kruskal-Wallis tests with Bonferroni correction. Pairwise Mann-Whitney U tests were used for comparing the same phenotype from two honeybee species. The sucrose responsiveness for specific sucrose concentrations was further compared between different groups with independent chi-square tests.
To test pollen stimulation, fresh pollen loads that had been removed from the leg of randomly selected PFs of the test group were used: AML were tested with pollen collected by AML foragers and ACC with pollen collected by ACC foragers. These loads contained a mixture of different pollen, predominated by black locust (R. pseudoacacia). As a control for mechanical stimulation, each bee had both antennae first touched with a piece of filter paper and spontaneous responders were excluded. Subsequently, both antennae of each bee were gently touched with a pollen load and PER responses were recorded. The pollen responsiveness was compared with independent chi-square tests between different groups.
To test responsiveness to larva, 1-day-old larvae from each honeybee species were collected, briefly rinsed in distilled water to remove royal jelly residue and dried on a filter paper. As before, both antennae of bees were touched with a piece of filter paper first and spontaneous responders were excluded, then PERs in response to a larva touching the antennae were recorded. The responsiveness to larvae was compared with independent chi-square tests between different groups. Statistical analyses were conducted using SPSS Statistics 20.0 (IBM, USA).
To confirm the function of TRP on task-specific responsiveness, NBs, PFs, and NFs of AML were injected with TRP2 and tested for their PER response to sucrose solution, pollen, and larva. About 150 bees of each behavioral phenotype were collected in the morning, then harnessed, fed and placed in a dark incubator as described in 'Comparative PER experiments' section. […] Bees injected with ddH2O were used as control. All injected bees were put back to the dark incubator and 1 hr after injection all surviving bees were assayed for their PER to stimulations of sucrose solution, pollen, and larva as described in 'Comparative PER experiments' section. Each experiment was performed with a new set of bees containing about 55 individuals per experimental and control group.
The sucrose responsiveness was further compared between different groups at each specific sucrose concentration with independent chi-square tests. […] All statistical analyses were performed with SPSS Statistics 20.0 (IBM).

[2] = system: TRP2-mediated cAMP accumulation; assay: Effect of PTX, CTX, YM-254890 and H89 on TRP2-mediated cAMP accumulation, HEK293 cells expressing TRPR; format: cell-based, Homo sapiens; conditions: TRP2, Control (no inhibitor)
TRPR [3] = system: TRPR
TRPR [4] = system: TRPR; remark: listed apart in the source
TRPR [5] = system: TRPR; remark: listed apart in the source

For ALMGFQGVRa [TRP2], the competitive binding (honeybee TRPR; Log (M) -4, replicate 1) was 26.6823, the competitive binding (honeybee TRPR; Log (M) -4, replicate 2) was 24.9306 and the competitive binding (honeybee TRPR; Log (M) -4, replicate 3) was 19.6578. For the same substance, the competitive binding (honeybee TRPR; Log (M) -5, replicate 1) was 24.5134, the competitive binding (honeybee TRPR; Log (M) -5, replicate 2) was 25.2301 and the competitive binding (honeybee TRPR; Log (M) -5, replicate 3) was 28.7532. For the same substance, the competitive binding (honeybee TRPR; Log (M) -6, replicate 1) was 31.3191, the competitive binding (honeybee TRPR; Log (M) -6, replicate 2) was 30.3643 and the competitive binding (honeybee TRPR; Log (M) -6, replicate 3) was 34.3614. The competitive binding (honeybee TRPR; Log (M) -7, replicate 1) was 40.7138, the competitive binding (honeybee TRPR; Log (M) -7, replicate 2) was 35.6042 and the competitive binding (honeybee TRPR; Log (M) -7, replicate 3) was 42.4738. The competitive binding (honeybee TRPR; Log (M) -8, replicate 1) was 59.0125, the competitive binding (honeybee TRPR; Log (M) -8, replicate 2) was 64.4899 and the competitive binding (honeybee TRPR; Log (M) -8, replicate 3) was 60.9813. It also gave a competitive binding (honeybee TRPR; Log (M) -9, replicate 1) of 79.5758, a competitive binding (honeybee TRPR; Log (M) -9, replicate 2) of 73.4731 and a competitive binding (honeybee TRPR; Log (M) -9, replicate 3) of 72.5477. It also gave a competitive binding (honeybee TRPR; Log (M) -10, replicate 1) of 80.4598, a competitive binding (honeybee TRPR; Log (M) -10, replicate 2) of 86.2073 and a competitive binding (honeybee TRPR; Log (M) -10, replicate 3) of 87.5948. It also gave a competitive binding (honeybee TRPR; Log (M) -11, replicate 1) of 96.7722, a competitive binding (honeybee TRPR; Log (M) -11, replicate 2) of 92.2369 and a competitive binding (honeybee TRPR; Log (M) -11, replicate 3) of 91.4817. For the same substance, the competitive binding (honeybee TRPR; Log (M) -12, replicate 1) was 92.3887, the competitive binding (honeybee TRPR; Log (M) -12, replicate 2) was 98.2368 and the competitive binding (honeybee TRPR; Log (M) -12, replicate 3) was 98.3115. The “effect on larva responsiveness vs ddH2O, χ^2” value ([1]; NBs, chi-square test) was 6.1, the “effect on larva responsiveness” value ([1]; NBs, vs ddH2O) was “significantly affected the responsiveness of NBs” and the “effect on sucrose responsiveness” value ([1]; NBs, vs ddH2O) was “did not show significant responsiveness changes to sucrose”. For the same substance, the “effect on larva responsiveness” value ([1]; NFs and PFs, vs ddH2O) was “not NFs or PFs”, the “reduction of SRS vs ddH2O, Z” value ([1]; NFs) was 2.3 and the “effect on sucrose responsiveness” value ([1]; NFs, vs ddH2O) was “significantly reducing PER responses to all sucrose concentrations except 0.1%”. For the same substance, the “reduction of SRS vs ddH2O, Z” value ([1]; PFs) was 2.2, the “decrease of pollen responsiveness vs ddH2O, χ^2” value ([1]; PFs, chi-square test) was 6.7 and the “effect on pollen responsiveness” value ([1]; PFs, vs ddH2O) was “significantly decreased responsiveness to pollen loads”. The “effect on sucrose responsiveness” value ([1]; PFs, vs ddH2O) was “significantly reducing PER responses to all sucrose concentrations used”, the PER ratio ([1]; nectar foragers, larva stimulus) was 11.54% and the PER ratio ([1]; nectar foragers, pollen stimulus) was 15.38%. The PER ratio ([1]; nectar foragers, sucrose 0.1%) was 10.34%, the PER ratio ([1]; nectar foragers, sucrose 0.3%) was 10.34% and the PER ratio ([1]; nectar foragers, sucrose 1.0%) was 12.07%. For the same substance, the PER ratio ([1]; nectar foragers, sucrose 3.0%) was 13.79%, the PER ratio ([1]; nectar foragers, sucrose 10.0%) was 20.69% and the PER ratio ([1]; nectar foragers, sucrose 30.0%) was 25.86%. It also gave a PER ratio ([1]; nurse bees, larva stimulus) of 18.18%, a PER ratio ([1]; nurse bees, pollen stimulus) of 12.73% and a PER ratio ([1]; nurse bees, sucrose 0.1%) of 15.38%. It also gave a PER ratio ([1]; nurse bees, sucrose 0.3%) of 19.23%, a PER ratio ([1]; nurse bees, sucrose 1.0%) of 25.00% and a PER ratio ([1]; nurse bees, sucrose 3.0%) of 30.77%. For the same substance, the PER ratio ([1]; nurse bees, sucrose 10.0%) was 40.38%, the PER ratio ([1]; nurse bees, sucrose 30.0%) was 48.08% and the PER ratio ([1]; pollen foragers, larva stimulus) was 22.64%. It also gave a PER ratio ([1]; pollen foragers, pollen stimulus) of 16.98%, a PER ratio ([1]; pollen foragers, sucrose 0.1%) of 16.98% and a PER ratio ([1]; pollen foragers, sucrose 0.3%) of 20.75%. The PER ratio ([1]; pollen foragers, sucrose 1.0%) was 22.64%, the PER ratio ([1]; pollen foragers, sucrose 3.0%) was 28.30% and the PER ratio ([1]; pollen foragers, sucrose 10.0%) was 32.08%. It also gave a PER ratio ([1]; pollen foragers, sucrose 30.0%) of 47.17%, a cAMP accumulation ([2]; Suppl.3A, replicate 1) of 9.157 and a cAMP accumulation ([2]; Suppl.3A, replicate 2) of 10.923. For the same substance, the cAMP accumulation ([2]; Suppl.3A, replicate 3) was 10.206, the cAMP accumulation ([2]; Suppl.3B, replicate 1) was 86.752 and the cAMP accumulation ([2]; Suppl.3B, replicate 2) was 90.385. The cAMP accumulation ([2]; Suppl.3B, replicate 3) was 95.777, the “cAMP and Ca2+ signaling, TRP2 compared with TRP3” value (TRPR [3]) was “induced higher cAMP and Ca^2+ signaling than TRP3” and the “increase of cAMP levels” value (TRPR [3]) was “more than 10 fold”. The “intracellular Ca2+ levels” value (TRPR [4]) was “rose sharply”, the “time by which ERK phosphorylation is near basal levels” value (TRPR [5]) was ≤ 90 min and the “time of maximal ERK phosphorylation” value (TRPR [5]) was 2 min.
